Reference: US8574563B2 (Bristol-Myers Squibb Company, priority 2006, dated 2013)
Like-named read-outs stand apart in the source and are kept apart here.

Tested on: HCV 1b-377-neo replicon cells
Experiment: HCV replicon assay, HCV 1b-377-neo replicon cells (1b FRET)
Assay type: cell-based, Hepatitis C virus genotype 1b
Settings: HCV 1b-377-neo replicon cells, HCV 1b genotype, read-out: EC50 range against HCV 1b (Table 2, Range)
Summary of the method: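 FRET-based replicon assay in HCV 1b-377-neo cells, including a comparison line carrying the NS5A Y2065H mutation that confers resistance to a reference compound.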

| Structure (SMILES) | EC50 (Hepatitis C virus) | EC50 |
| --- | --- | --- |
| COC(=O)N[C@@H](C(=O)N1CCC[C@H]1c1ncc(-c2ccc(-c3ccc(-c4cnc([C@@H]5CCCN5C(=O)N5CCOCC5)[nH]4)cc3)cc2)[nH]1)c1ccccc1 [Example 78, methyl ((1R)-2-((2S)-2-(5-(4′-(2-((2S)-1-(4-morpholinylcarbonyl)-2-pyrrolidinyl)-1H-imidazol-5-yl)-4-biphenylyl)-1H-imidazol-2-yl)-1-pyrrolidinyl)-2-oxo-1-phenylethyl)carbamate] | 0.001 to 0.999 nM |  |
| COC(=O)N[C@@H](C(=O)N1CCC[C@H]1c1ncc(-c2ccc(-c3ccc(-c4cnc([C@@H]5CCCN5C(=O)[C@@H]5C[C@H](F)CN5)[nH]4)cc3)cc2)[nH]1)c1ccccc1 [Example 79, methyl ((1R)-2-((2)S-2-(5-(4′-(2-((2S)-1-((4S)-4-fluoro-L-prolyl)-2-pyrrolidinyl)-1H-imidazol-5-yl)-4-biphenylyl)-1H-imidazol-2-yl)-1-pyrrolidinyl)-2-oxo-1-phenylethyl)carbamate] |  | 0.001 to 0.999 nM |
| COC(=O)N[C@@H](C(=O)N1CCC[C@H]1c1ncc(-c2ccc(-c3ccc(-c4cnc([C@@H]5CCCN5C(=O)[C@@H]5CCCN5)[nH]4)cc3)cc2)[nH]1)c1ccccc1 [Example 80, methyl ((1R)-2-oxo-1-phenyl-2-((2S)-2-(5-(4′-(2-((2S)-1-L-prolyl-2-pyrrolidinyl)-1H-imidazol-5-yl)-4-biphenylyl)-1H-imidazol-2-yl)-1-pyrrolidinyl)ethyl)carbamate] | 0.001 to 0.999 nM |  |
| COC(=O)N[C@@H](C(=O)N1CCC[C@H]1c1ncc(-c2ccc(-c3ccc(-c4cnc([C@@H]5CCCN5C(=O)[C@@H]5CC(F)(F)CN5)[nH]4)cc3)cc2)[nH]1)c1ccccc1 [Example 81, methyl ((1R)-2-((2S)-2-(5-(4′(2-((2S)-1-(4,4-difluoro-L-prolyl)-2-pyrrolidinyl)-1H-imidazol-5-yl)-4-biphenylyl)-1H-imidazol-2-yl)-1-pyrrolidinyl)-2-oxo-1-phenylethyl)carbamate] | 0.001 to 0.999 nM |  |
| COC(=O)N[C@@H](C(=O)N1CCC[C@H]1c1ncc(-c2ccc(-c3ccc(-c4cnc([C@@H]5CCCN5C(=O)[C@@H]5C[C@@H](F)CN5)[nH]4)cc3)cc2)[nH]1)c1ccccc1 [Example 82, methyl ((1R)-2-((2S)-2-(5-(4′-(2-((2S)-1-((4R)-4-fluoro-L-prolyl)-2-pyrrolidinyl)-1H-imidazol-5-yl)-4-biphenylyl)-1H-imidazol-2-yl)-1-pyrrolidinyl)-2-oxo-1-phenylethyl)carbamate] | 0.001 to 0.999 nM |  |
| COC(=O)N[C@@H](C(=O)N1CCC[C@H]1c1ncc(-c2ccc(-c3ccc(-c4cnc([C@@H]5CCCN5C(=O)[C@@H]5C[C@@H]6C[C@@H]6N5)[nH]4)cc3)cc2)[nH]1)c1ccccc1 [Example 83, methyl ((1R)-2-((2)S-2-(5-(4′ (2-((2S)-1-((1S,3S,5S)-2-azabicyclo[3.1.0]hex-3-ylcarbonyl)-2-pyrrolidinyl)-1H-imidazol-5-yl)-4-biphenylyl)-1H-imidazol-2-yl)-1-pyrrolidinyl)-2-oxo-1-phenylethyl)carbamate] |  | 0.001 to 0.999 nM |
| COC(=O)N[C@@H](C(=O)N1CCC[C@H]1c1ncc(-c2ccc(-c3ccc(-c4cnc([C@@H]5CCCN5C(=O)[C@H](C)N)[nH]4)cc3)cc2)[nH]1)c1ccccc1 [Example 84, methyl ((1R)-2-((2S)-2-(5-(4′-(2-((2S)-1-L-alanyl-2-pyrrolidinyl)-1H-imidazol-5-yl)-4-biphenylyl)-1H-imidazol-2-yl)-1-pyrrolidinyl)-2-oxo-1-phenylethyl)carbamate] | 0.001 to 0.999 nM |  |
| COC(=O)N[C@@H](C(=O)N1CCC[C@H]1c1ncc(-c2ccc(-c3ccc(-c4cnc([C@@H]5CCCN5C(=O)[C@@H](c5ccccc5)N5CCCCC5)[nH]4)cc3)cc2)[nH]1)c1ccccc1 [Example 84-1, methyl ((1R)-2-oxo-1-phenyl-2-((2S)-2-(5-(4′-(2-((2S)-1-((2R)-2-phenyl-2-(1-piperidinyl)acetyl)-2-pyrrolidinyl)-1H-imidazol-5-yl)-4-biphenylyl)-1H-imidazol-2-yl)-1-pyrrolidinyl)ethyl)carbamate] | 0.001 to 0.999 nM |  |
| COC(=O)N[C@@H](C(=O)N1CCC[C@H]1c1ncc(-c2ccc(-c3ccc(-c4cnc([C@@H]5CCCN5C(=O)[C@@](C)(O)c5ccccc5F)[nH]4)cc3)cc2)[nH]1)c1ccccc1 [Example 84-2, methyl ((1R)-2-((2S)-2-(5-(4′-(2-((2S)-1-((2S)-2-(2-fluorophenyl)-2-hydroxypropanoyl)-2-pyrrolidinyl)-1H-imidazol-5-yl)-4-biphenylyl)-1H-imidazol-2-yl)-1-pyrrolidinyl)-2-oxo-1-phenylethyl)carbamate] | 0.001 to 0.999 nM |  |
| COC(=O)N[C@@H](C(=O)N1CCC[C@H]1c1ncc(-c2ccc(-c3ccc(-c4cnc([C@@H]5CCCN5C(=O)[C@H]5CCC(=O)N5)[nH]4)cc3)cc2)[nH]1)c1ccccc1 [Example 84-3] |  | 0.001 to 0.999 nM |
| COC(=O)N[C@@H](C(=O)N1CCC[C@H]1c1ncc(-c2ccc(-c3ccc(-c4cnc([C@@H]5CCCN5C(=O)[C@@H](c5ccccc5)N5CCC(C)(O)CC5)[nH]4)cc3)cc2)[nH]1)c1ccccc1 [Example 84-4, methyl ((1R)-2-((2S)-2-(5-(4′-(2-((2S)-1-((2R)-2-(4-hydroxy-4-methyl-1-piperidinyl)-2-phenylacetyl)-2-pyrrolidinyl)-1H-imidazol-5-yl)-4-biphenylyl)-1H-imidazol-2-yl)-1-pyrrolidinyl)-2-oxo-1-phenylethyl)carbamate] | 0.001 to 0.999 nM |  |
| COC(=O)N[C@@H](C(=O)N1CCC[C@H]1c1ncc(-c2ccc(-c3ccc(-c4cnc([C@@H]5CCCN5C(=O)CNC(=O)c5ccccc5)[nH]4)cc3)cc2)[nH]1)c1ccccc1 [Example 84-7, methyl ((1R)-2-((2S)-2-(5-(4′-(2-((2S)-1-(N-benzoylglycyl)-2-pyrrolidinyl)-1H-imidazol-5-yl)-4-biphenylyl)-1H-imidazol-2-yl)-1-pyrrolidinyl)-2-oxo-1-phenylethyl)carbamate] | 1 to 99 nM |  |
| COC(=O)N[C@@H](C(=O)N1CCC[C@H]1c1ncc(-c2ccc(-c3ccc(-c4cnc([C@@H]5CCCN5C(=O)c5snnc5-c5ccccc5)[nH]4)cc3)cc2)[nH]1)c1ccccc1 [Example 84-10, methyl ((1R)-2-oxo-1-phenyl-2-((2S)-2-(5-(4′-(2-((2S)-1-((4-phenyl-1,2,3-thiadiazol-5-yl)carbonyl)-2-pyrrolidinyl)-1H-imidazol-5-yl)-4-biphenylyl)-1H-imidazol-2-yl)-1-pyrrolidinyl)ethyl)carbamate] | 1 to 99 nM |  |
| COC(=O)N[C@@H](C(=O)N1CCC[C@H]1c1ncc(-c2ccc(-c3ccc(-c4cnc([C@@H]5CCCN5C(=O)C5(C)CCN(C(=O)OC(C)(C)C)CC5)[nH]4)cc3)cc2)[nH]1)c1ccccc1 [Example 84-12, tert-butyl 4-(((2S)-2-(5-(4′-(2-((2S)-1-((2R)-2-((methoxycarbonyl)amino)-2-phenylacetyl)-2-pyrrolidinyl)-1H-imidazol-5-yl)-4-biphenylyl)-1H-imidazol-2-yl)-1-pyrrolidinyl)carbonyl)-4-methyl-1-piperidinecarboxylate] | 0.001 to 0.999 nM |  |
| COC(=O)N[C@@H](C(=O)N1CCC[C@H]1c1ncc(-c2ccc(-c3ccc(-c4cnc([C@@H]5CCCN5C(=O)Cc5cccc(O)c5)[nH]4)cc3)cc2)[nH]1)c1ccccc1 [Example 84-14, methyl ((1R)-2-((2S)-2-(5-(4′-(2-((2S)-1-((3-hydroxyphenyl)acetyl)-2-pyrrolidinyl)-1H-imidazol-5-yl)-4-biphenylyl)-1H-imidazol-2-yl)-1-pyrrolidinyl)-2-oxo-1-phenylethyl)carbamate] | 1 to 99 nM |  |
| COC(=O)N[C@@H](C(=O)N1CCC[C@H]1c1ncc(-c2ccc(-c3ccc(-c4cnc([C@@H]5CCCN5C(=O)CCN(C)C)[nH]4)cc3)cc2)[nH]1)c1ccccc1 [Example 84-15, methyl ((1R)-2-((2S)-2-(5-(4′-(2-((2S)-1-(N,N-dimethyl-beta-alanyl)-2-pyrrolidinyl)-1H-imidazol-5-yl)-4-biphenylyl)-1H-imidazol-2-yl)-1-pyrrolidinyl)-2-oxo-1-phenylethyl)carbamate] | 1 to 99 nM |  |
| COC(=O)N[C@@H](C(=O)N1CCC[C@H]1c1ncc(-c2ccc(-c3ccc(-c4cnc([C@@H]5CCCN5C(=O)[C@@H]5CCN(Cc6ccccc6)C5)[nH]4)cc3)cc2)[nH]1)c1ccccc1 [Example 84-17, methyl ((1R)-2-((2S)-2-(5-(4′-(2-((2S)-1-(((3R)-1-benzyl-3-pyrrolidinyl)carbonyl)-2-pyrrolidinyl)-1H-imidazol-5-yl)-4-biphenylyl)-1H-imidazol-2-yl)-1-pyrrolidinyl)-2-oxo-1-phenylethyl)carbamate] | 0.001 to 0.999 nM |  |
| COC(=O)N[C@@H](C(=O)N1CCC[C@H]1c1ncc(-c2ccc(-c3ccc(-c4cnc([C@@H]5CCCN5C(=O)C[C@@H]5CCCN5C(=O)OC(C)(C)C)[nH]4)cc3)cc2)[nH]1)c1ccccc1 [Example 84-18, tert-butyl (2S)-2-(2-((2S)-2-(5-(4′-(2-((2S)-1-((2R)-2-((methoxycarbonyl)amino)-2-phenylacetyl)-2-pyrrolidinyl)-1H-imidazol-5-yl)-4-biphenylyl)-1H-imidazol-2-yl)-1-pyrrolidinyl)-2-oxoethyl)-1-pyrrolidinecarboxylate] | 1 to 99 nM |  |
| COC(=O)N[C@@H](C(=O)N1CCC[C@H]1c1ncc(-c2ccc(-c3ccc(-c4cnc([C@@H]5CCCN5C(=O)Cc5cc(C)[nH]n5)[nH]4)cc3)cc2)[nH]1)c1ccccc1 [Example 84-19, methyl ((1R)-2-((2S)-2-(5-(4′-(2-((2S)-1-((5-methyl-1H-pyrazol-3-yl)acetyl)-2-pyrrolidinyl)-1H-imidazol-5-yl)-4-biphenylyl)-1H-imidazol-2-yl)-1-pyrrolidinyl)-2-oxo-1-phenylethyl)carbamate] | 1 to 99 nM |  |
